From US4394503A, “Cephalosporin derivatives” (priority 1981, dated 1983)
≈ marks a conversion by molar mass, not a printed value. Structures can show the parent of a compound that is named as a salt. Where two headings read alike, the source gives them in different places.

Tests used:
[1] = tested on: Penicillin-sensitive S. aureus (Gp-Ia); test: In vitro antibacterial activity, two-fold agar dilution, Mueller-Hinton agar (Table 1), group Gp-Ia; format: cell-based; conditions: Staphylococcus aureus; read-out: Geometric Mean of MIC
[2] = tested on: S. aureus A9497; test: MIC against selected test organisms (Table 2); format: cell-based; conditions: Staphylococcus aureus, Gp-Ia, PC-S, read-out: Minimum Inhibitory Concentration
[3] = tested on: P. mirabilis A9554; test: MIC against selected test organisms (Table 2); format: cell-based; conditions: Proteus mirabilis, A9554; Gn-Ia, CET-S; read-out: Minimum Inhibitory Concentration
[4] = tested on: K. pneumoniae D11; test: MIC against selected test organisms (Table 2); format: cell-based; conditions: Klebsiella pneumoniae, D11; Gn-Ia, CET-S; read-out: Minimum Inhibitory Concentration
[5] = tested on: P. acnes A21933; test: MIC against selected test organisms (Table 2); format: cell-based; conditions: Cutibacterium acnes, A21933; Anaerobe, CLDM-R; read-out: Minimum Inhibitory Concentration
[6] = tested on: B. fragilis A22693; test: MIC against selected test organisms (Table 2); format: cell-based; conditions: Bacteroides fragilis, A22693; Anaerobe, CET-R; read-out: Minimum Inhibitory Concentration
[7] = tested on: S. aureus A15092; test: MIC against selected test organisms (Table 2); format: cell-based; conditions: Staphylococcus aureus, Gp-Ib, PC-R, read-out: Minimum Inhibitory Concentration
[8] = tested on: B. fragilis A21900; test: MIC against selected test organisms (Table 2); format: cell-based; conditions: Bacteroides fragilis, A21900; Anaerobe, CET-S; read-out: Minimum Inhibitory Concentration
[9] = tested on: B. fragilis A22695; test: MIC against selected test organisms (Table 2); format: cell-based; conditions: Bacteroides fragilis, A22695; Anaerobe, AMP-R; read-out: Minimum Inhibitory Concentration
[10] = tested on: E. coli A15148; test: MIC against selected test organisms (Table 2); format: cell-based; conditions: Escherichia coli, A15148; Gn-Ib, CET-R; read-out: Minimum Inhibitory Concentration
[11] = tested on: S. aureus Smith; test: MIC against selected test organisms (Table 2); format: cell-based; conditions: Staphylococcus aureus; Gp-Ia, PC-S; read-out: Minimum Inhibitory Concentration
[12] = tested on: P. aeruginosa A20717; test: MIC against selected test organisms (Table 2); format: cell-based; conditions: Pseudomonas aeruginosa, A20717; Gn-III, CET-R; read-out: Minimum Inhibitory Concentration
[13] = tested on: B. fragilis A22021; test: MIC against selected test organisms (Table 2); format: cell-based; conditions: Bacteroides fragilis, A22021; Anaerobe, CET-R; read-out: Minimum Inhibitory Concentration
[14] = tested on: C. difficile A21675; test: MIC against selected test organisms (Table 2); format: cell-based; conditions: Clostridioides difficile, A21675; Anaerobe, CLDM-R; read-out: Minimum Inhibitory Concentration
[15] = tested on: P. aeruginosa A9843; test: MIC against selected test organisms (Table 2); format: cell-based; conditions: Pseudomonas aeruginosa, A9843; Gn-III, CET-R; read-out: Minimum Inhibitory Concentration
[16] = tested on: E. coli Juhl; test: Therapeutic efficacy in experimentally infected mice (Table 5); format: in vivo; conditions: Escherichia coli, im, 120 h; i.m., immediately after intraperitoneal challenge, 5 days observation; read-out: PD50 (median protective dose)
Protocol: (§1) The test compounds were administered intramuscularly immediately after the bacterial challenge.

[17] = tested on: S. aureus Smith; test: as above; format: in vivo; conditions: Staphylococcus aureus, im, 120 h; i.m., immediately after intraperitoneal challenge, 5 days observation; read-out: PD50 (median protective dose)
Protocol: as §1

[18] = tested on: P. aeruginosa A9843; test: as above; format: in vivo; conditions: Pseudomonas aeruginosa, A9843, im, 120 h; i.m., immediately after intraperitoneal challenge, 5 days observation; read-out: PD50 (median protective dose)
Protocol: as §1

[19] = tested on: E. cloacae A9656; test: MIC against selected test organisms (Table 2); format: cell-based; conditions: Enterobacter cloacae, Gn-II, CET-R, read-out: Minimum Inhibitory Concentration
[20] = tested on: P. morganii A9553; test: MIC against selected test organisms (Table 2); format: cell-based; conditions: Morganella morganii, A9553; Gn-II, CET-R; read-out: Minimum Inhibitory Concentration
[21] = tested on: C. perfringens A9635; test: microbe, parasite or virus in culture; format: cell-based; conditions: Clostridium perfringens, A9635, read-out: Minimum Inhibitory Concentration
[22] = tested on: Cephalothin-resistant E. coli and Kl. pneumoniae (Gn-Ib); test: In vitro antibacterial activity, two-fold agar dilution, Mueller-Hinton agar (Table 1), group Gn-Ib; format: cell-based, E. coli (3) and Kl. pneumoniae (3); conditions: Escherichia coli, read-out: Geometric Mean of MIC
[23] = tested on: Cephalothin-sensitive E. coli, Kl. pneumoniae and Pr. mirabilis (Gn-Ia); test: In vitro antibacterial activity, two-fold agar dilution, Mueller-Hinton agar (Table 1), group Gn-Ia; format: cell-based; conditions: read-out: Geometric Mean of MIC
[24] = tested on: S. aureus BX-1633; test: MIC against selected test organisms (Table 2); format: cell-based; conditions: Staphylococcus aureus, BX1633; Gp-Ib, PC-R; read-out: Minimum Inhibitory Concentration
[25] = tested on: B. fragilis A22533; test: MIC against selected test organisms (Table 2); format: cell-based; conditions: Bacteroides fragilis, A22533; Anaerobe, AMP-R; read-out: Minimum Inhibitory Concentration
[26] = tested on: Penicillin-resistant S. aureus (Gp-Ib); test: In vitro antibacterial activity, two-fold agar dilution, Mueller-Hinton agar (Table 1), group Gp-Ib; format: cell-based; conditions: Staphylococcus aureus; read-out: Geometric Mean of MIC
[27] = tested on: Pr. morganii, Ent. cloacae and Ser. marcescens (Gn-II); test: In vitro antibacterial activity, two-fold agar dilution, Mueller-Hinton agar (Table 1), group Gn-II; format: cell-based, Pr. morganii (1), Ent. cloacae (2) and Ser. marcescens (2); conditions: read-out: Geometric Mean of MIC
[28] = tested on: B. fragilis A20928-1; test: MIC against selected test organisms (Table 2); format: cell-based; conditions: Bacteroides fragilis, A209281; Anaerobe, CET-S; read-out: Minimum Inhibitory Concentration
[29] = tested on: K. pneumoniae A 9867; test: MIC against selected test organisms (Table 2); format: cell-based; conditions: Klebsiella pneumoniae, A9867; Gn-Ib, CET-R; read-out: Minimum Inhibitory Concentration
[30] = tested on: Ps. aeruginosa (Gn-III); test: In vitro antibacterial activity, two-fold agar dilution, Mueller-Hinton agar (Table 1), group Gn-III; format: cell-based; conditions: Pseudomonas aeruginosa; read-out: Geometric Mean of MIC
[31] = tested on: S. marcescens A20019; test: MIC against selected test organisms (Table 2); format: cell-based; conditions: Serratia marcescens, A20019; Gn-II, CET-R; read-out: Minimum Inhibitory Concentration
[32] = tested on: P. aeruginosa A15150; test: MIC against selected test organisms (Table 2); format: cell-based; conditions: Pseudomonas aeruginosa, A15150; Gn-III, CET-R; read-out: Minimum Inhibitory Concentration
[33] = tested on: E. coli Juhl; test: MIC against selected test organisms (Table 2); format: cell-based; conditions: Escherichia coli; Gn-Ia, CET-S; read-out: Minimum Inhibitory Concentration
[34] = tested on: B. fragilis Group I; test: In vitro antianaerobic activity in GAM agar (Table 4); format: cell-based; conditions: Bacteroides fragilis
[35] = tested on: Others Group IV (C. difficile, C. perfringens, P. acne and P. anaerobius); test: microbe, parasite or virus in culture; format: cell-based; conditions: read-out: Geometric Mean of MIC, GAM agar, 1 strain each
[36] = tested on: B. fragilis Group III; test: In vitro antianaerobic activity in GAM agar (Table 4); format: cell-based; conditions: read-out: Geometric Mean of MIC
[37] = tested on: B. fragilis Group II; test: as above; format: cell-based; conditions: Bacteroides fragilis; read-out: Geometric Mean of MIC
[38] = prior-art filing; cited from earlier work

CSc1ccc[n+](CC2=C(C(=O)[O-])N3C(=O)C(NC(=O)/C(=N\OC(C)(C)C(=O)O)c4csc(N)n4)C3SC2)c1 (stereo not drawn) [Example 1, 7-[(Z)-2-(2-Aminothiazol-4-yl)-2-(2-carboxyprop-2-oxyimino)acetamido]-3-[(3-methylthiopyridinium)methyl]-3-cephem-4-carboxylate]
MIC [1]: 4.7 µg/mL (≈ 7.93 µM) | MIC [2]: 3.1 µg/mL (≈ 5.23 µM) | MIC [3]: 0.1 µg/mL (≈ 0.169 µM) | MIC [4]: 0.4 µg/mL (≈ 0.675 µM) | MIC [5]: 1.6 µg/mL (≈ 2.7 µM) | MIC [6]: 25 µg/mL (≈ 42.2 µM) | MIC [7]: 12.5 µg/mL (≈ 21.1 µM) | MIC [8]: 6.3 µg/mL (≈ 10.6 µM) | MIC [9]: 50 µg/mL (≈ 84.4 µM) | MIC [10]: 0.4 µg/mL (≈ 0.675 µM) | MIC [11]: 6.3 µg/mL (≈ 10.6 µM) | MIC [12]: 12.5 µg/mL (≈ 21.1 µM) | MIC [13]: 25 µg/mL (≈ 42.2 µM) | MIC [14]: > 100 µg/mL | MIC [15]: 3.1 µg/mL (≈ 5.23 µM) | ED50 [16]: 0.46 mg/kg | ED50 [17]: 6 mg/kg | ED50 [18]: 12 mg/kg | MIC [19]: 0.4 µg/mL (≈ 0.675 µM) | MIC [20]: 1.6 µg/mL (≈ 2.7 µM) | MIC [21]: 25 µg/mL (≈ 42.2 µM) | MIC [22]: 1.1 µg/mL (≈ 1.86 µM) | MIC [23]: 0.11 µg/mL (≈ 0.186 µM) | MIC [24]: 12.5 µg/mL (≈ 21.1 µM) | MIC [25]: > 100 µg/mL | MIC [26]: 12.5 µg/mL (≈ 21.1 µM) | MIC [27]: 2.8 µg/mL (≈ 4.72 µM) | MIC [28]: 6.3 µg/mL (≈ 10.6 µM) | MIC [29]: 3.1 µg/mL (≈ 5.23 µM) | MIC [30]: 3.5 µg/mL (≈ 5.91 µM) | MIC [31]: 0.2 µg/mL (≈ 0.337 µM) | MIC [32]: 1.6 µg/mL (≈ 2.7 µM) | MIC [33]: 0.2 µg/mL (≈ 0.337 µM)

CSc1cccc[n+]1CC1=C(C(=O)[O-])N2C(=O)C(NC(=O)/C(=N\OC(C)(C)C(=O)O)c3csc(N)n3)C2SC1 (stereo not drawn) [Example 3, 7-[(Z)-2-(2-Aminothiazol-4-yl)-2-(2-carboxyprop-2-oxyimino)-acetamido]-3-[(2-methylthiopyridinium)methyl]-3-cephem-4-carboxylate]
MIC [1]: 9.5 µg/mL (≈ 16 µM) | MIC [22]: 2 µg/mL (≈ 3.37 µM) | MIC [23]: 0.11 µg/mL (≈ 0.186 µM) | MIC [26]: 12.5 µg/mL (≈ 21.1 µM) | MIC [27]: 3.2 µg/mL (≈ 5.4 µM) | MIC [30]: 5.6 µg/mL (≈ 9.45 µM)

CCSc1cc[n+](CC2=C(C(=O)[O-])N3C(=O)C(NC(=O)/C(=N\OC(C)(C)C(=O)O)c4csc(N)n4)C3SC2)cc1 (stereo not drawn) [Example 4, 7-[(Z)-2-(2-Aminothiazol-4-yl)-2-(2-carboxyprop-2-oxyimino)acetamido]-3-[(4-ethylthiopyridinium)methyl]-3-cephem-4-carboxylate]
MIC [1]: 6.3 µg/mL (≈ 10.4 µM) | MIC ([34]; read-out: Geometric Mean of MIC, GAM agar, Example 4, ceftazidime (mean of 3 experiments), nonlactamase-producing, ampicillin-sensitive, 3 strains): 2.5 µg/mL (≈ 4.12 µM) | MIC ([35]; Example 4, ceftazidime (mean of 3 experiments)): 8.9 µg/mL (≈ 14.7 µM) | MIC [36]: 100 µg/mL (≈ 165 µM) | MIC [22]: 1.3 µg/mL (≈ 2.14 µM) | MIC [37]: 12.5 µg/mL (≈ 20.6 µM) | MIC [23]: 0.087 µg/mL (≈ 0.143 µM) | MIC [26]: 12.5 µg/mL (≈ 20.6 µM) | MIC [27]: 2.1 µg/mL (≈ 3.46 µM) | MIC [30]: 8.8 µg/mL (≈ 14.5 µM)

CC(C)Sc1cc[n+](CC2=C(C(=O)[O-])N3C(=O)C(NC(=O)/C(=N\OC(C)(C)C(=O)O)c4csc(N)n4)C3SC2)cc1 (stereo not drawn) [Example 5, 7-[(Z)-2-(2-Aminothiazol-4-yl)-2-(2-carboxyprop-2-oxyimino)-acetamido]-3-[(4-isopropylthiopyridinium)methyl]-3-cephem-4-carboxylate]
MIC [1]: 4.7 µg/mL (≈ 7.57 µM) | MIC ([34]; read-out: Geometric Mean of MIC): 3.2 µg/mL (≈ 5.16 µM) | MIC ([35]; Example 5 ceftazidime (mean of 2 experiments)): 3.5 µg/mL (≈ 5.64 µM) | MIC [36]: > 100 µg/mL | MIC [22]: 1 µg/mL (≈ 1.61 µM) | MIC [37]: 25 µg/mL (≈ 40.3 µM) | MIC [23]: 0.11 µg/mL (≈ 0.177 µM) | MIC [26]: 12.5 µg/mL (≈ 20.1 µM) | MIC [27]: 2.4 µg/mL (≈ 3.87 µM) | MIC [30]: 12.5 µg/mL (≈ 20.1 µM)

CC(C)(O/N=C(\C(=O)N[C@@H]1C(=O)N2C(C(=O)[O-])=C(C[n+]3ccccc3)CS[C@H]12)c1csc(N)n1)C(=O)O [bishydrochloride of ceftazidime]
storage stability [38]: good storage stability
